# Entries after “also recorded” stand apart in the source; their conditions may differ.
# B1: leptin: Recombinant Murine Leptin (PeproTech #450-31) (protein, UniProt P41160 22-167, looked up)
# Leptin: VPIQKVQDDTKTLIKTIVTRINDISHTQSVSAKQRVTGLDFIPGLHPILSLSKMDQTLAVYQQVLTSLPSQNVLQIANDLENLRDLLHLLAFSKSCSLPQTSGLQKPESLDGVLEASLYSTEVVALSRLQGSLQDILQQLDVSPEC
# What was measured:
# [1] = cited from earlier work
# [2] = tested on: Shh signaling; settings: Nfia/b/x-deficient mice
# Description: 10 μg/g Cyclopamine was injected from P8 to P16 on alternative days. 100 μg/g body weight BrdU was injected together from the 3rd injection for 5 consecutive days. Control mice were treated with the corresponding vehicle solution.
# All cell counts were performed blindly and manually by five independent observers using Fiji/ImageJ software. […] Initially, cell numbers were normalized by the size (mm) of hypothalamic nuclei measured. […] All values are expressed as mean±S.E.M. Comparisons were analyzed by two-tailed Student's t-test using Microsoft Excel unless stated otherwise. A p-value of <0.05 was considered statistically significant.
# [3] = tested on: Shh signaling; assay: Activation of Shh signaling with SAG in juvenile control Rax-CreER;CAG-lsl-Sun1-GFP mice: tanycyte-derived neurogenesis; settings: juvenile mice (P10-12), 10 mg/kg i.p.
# Description: Vehicle controls were performed in parallel. To quantify levels of tanycyte proliferation and neurogenesis, 50 mg/kg 5-Ethynyl-2′-deoxyuridine (EdU) was delivered via three once-daily i.p. injections beginning on the first day of treatment. Four days after the final treatment at P16, immunohistochemistry was performed on 25 μm hypothalamic brain sections to quantify the levels of tanycyte proliferation and tanycyte-derived neurogenesis. The number of Edu+/GFP+/HuC/D+ tanycyte-derived neurons in the DMN, VMN, ArcN, and ME of the hypothalamus were then quantified.
# • 1) Dissolved in 5 mg Sag with 1 ml of 1×PBS. • 2) Dilute stock to 1 ug/1 ul stock in 1×PBS that is 200 ul of 5 mg/ml stock into 800 ul of 1× PBS. • 3) if animal is 10 g then it will get 10 ug per gram so that is 100 ug/100 ul of 1 ug/1 ul stock.
# [4] = tested on: leptin receptor Lepr; assay: Leptin injection: pStat3 induction in tanycyte-derived neurons of Nfia/b/x-deficient mice; type: in vivo; settings: P90 fasted mice, 3 mg/kg i.p., 45 minutes
# Description: At P45, 4.4% of tanycyte-derived neurons in the GABA_2 cluster expressed the leptin receptor Lepr (FIG. 5B), despite Lepr being essentially undetectable in tanycytes themselves, as previously reported (19). As a result, it was tested whether tanycyte-derived neurons were capable of responding to leptin signaling. P90 mice that had undergone an overnight fast were injected i.p. with 3 mg/kg leptin, and sacrificed after 45 minutes, providing sufficient time for leptin-responsive neurons throughout the hypothalamus to induce pStat3 immunoreactivity (35, 36). […] A total of 42.3 (2.5) % of parenchymal tanycyte-derived neurons in DMH and ArcN show pStat3 induction under these conditions, along with 22.3 (±3.9) % of tanycyte-derived neurons in the subventricular region (FIG. 5J), confirming that a subset of tanycyte-derived neurons are leptin-responsive.
# After brief washing with 1×PBS to remove the antifreeze solution, sections were mounted on Superfrost Plus slides (Fisher Scientific) before starting the immunohistochemistry and dried at room temperature for 30 min. To ensure adequate fixation for nuclear staining, sections were immersed into the fixative solution for 10 min at this point. Antigen retrieval was performed by incubating the slides with the prewarmed sodium citrate buffer (10 mM sodium citrate, pH 6.0) in an 80° C. water bath for 30 min. […] After finishing the first round of immunostaining, the fluorescence signal was crosslinked by incubation in 2% PFA for 10 min, followed by either EdU staining using the Click-iT EdU detection kit conjugated with Alexa Fluor 647 (ThermoFisher #C10340) or BrdU antibody staining. […]
# P45 male mice were exposed to ambient heat (38° C.) for 4 hours (67) by incubating in a prewarmed light-controlled cabinet in the rodent metabolism core facility at the Center for Metabolism and Obesity Research of the Johns Hopkins University School of Medicine. During the procedure, mice were provided ad libitum access to water and food and carefully monitored. […]
# [5] = 10 μg/g i.p. every 2 days P8-P16, compared to vehicle controls
molecule,measurement,setting,value
"O=C1C2CN(Cc3ccc(Cl)cc3)CCN2C(=O)N1OC(=O)N1CCOc2ccccc21 (stereo not drawn) [ABC99, 7-(4-Chlorobenzyl)-1,3-dioxohexahydroimidazo[1,5-a]pyrazin-2(3H)-yl 2,3-dihydro-4Hbenzo[b][1,4]oxazine-4-carboxylate]",blood-brain barrier permeability,[1],blood-brain barrier-permeable; also recorded: efficiently cross the blood-brain barrier
CC1=C2C[C@H]3[C@@H](CC=C4C[C@@H](O)CC[C@@]43C)[C@@H]2CC[C@]12O[C@@H]1C[C@H](C)CN[C@H]1[C@H]2C [Cyclopamine],numbers of GFP/NeuN double-positive neurons in VZ and HP,[2]; [5],significant reduction
same,numbers of total GFP-positive cells in ventricular zone (VZ) and hypothalamic parenchyma (HP),[2]; [5],significant reduction
same,BrdU incorporation,"[2]; BrdU daily P12-P16, compared to vehicle controls",only significantly different in parenchymal neurons
same,neurogenesis (FIG. 4C),[2]; i.p.,inhibits neurogenesis
same,blood-brain barrier permeability,[1],blood-brain barrier-permeable
CNC1CCC(N(Cc2cccc(-c3ccncc3)c2)C(=O)c2sc3ccccc3c2Cl)CC1 (stereo not drawn) [SAG],tanycyte proliferation as cause of the increase,[3],does not appear to be due to stimulating tanycyte proliferation
same,number of tanycyte-derived neurons,[3]; 3 daily injections,"increase, including significant increases"
same,blood-brain barrier permeability,[1],efficiently cross the blood-brain barrier
B1,pStat3 immunoreactivity in GFP-positive tanycyte-derived neurons,[4],Robust induction
same,parenchymal tanycyte-derived neurons in DMH and ArcN showing pStat3 induction,[4],42.3 (2.5) %
same,tanycyte-derived neurons in the subventricular region showing pStat3 induction,[4],22.3 (±3.9) %
